Laboratory results from ChEMBL document CHEMBL1201862, “PubChem BioAssay data set” (2004).
Active and inactive are the calls of the source.

Key:
Protein RecA = biological target: T1, Protein RecA (Mycobacterium tuberculosis, UniProt P9WHJ3); assay: Fluorescence Cell-Free Homogeneous Dose Retest to Identify Inhibitors of RecA-Intein Splicing Activity. [Related pubchem assays (depositor defined):AID2097, AID2223, AID489010, AID492950]; assay type: functional
T1 sequence (P9WHJ3 whole entry): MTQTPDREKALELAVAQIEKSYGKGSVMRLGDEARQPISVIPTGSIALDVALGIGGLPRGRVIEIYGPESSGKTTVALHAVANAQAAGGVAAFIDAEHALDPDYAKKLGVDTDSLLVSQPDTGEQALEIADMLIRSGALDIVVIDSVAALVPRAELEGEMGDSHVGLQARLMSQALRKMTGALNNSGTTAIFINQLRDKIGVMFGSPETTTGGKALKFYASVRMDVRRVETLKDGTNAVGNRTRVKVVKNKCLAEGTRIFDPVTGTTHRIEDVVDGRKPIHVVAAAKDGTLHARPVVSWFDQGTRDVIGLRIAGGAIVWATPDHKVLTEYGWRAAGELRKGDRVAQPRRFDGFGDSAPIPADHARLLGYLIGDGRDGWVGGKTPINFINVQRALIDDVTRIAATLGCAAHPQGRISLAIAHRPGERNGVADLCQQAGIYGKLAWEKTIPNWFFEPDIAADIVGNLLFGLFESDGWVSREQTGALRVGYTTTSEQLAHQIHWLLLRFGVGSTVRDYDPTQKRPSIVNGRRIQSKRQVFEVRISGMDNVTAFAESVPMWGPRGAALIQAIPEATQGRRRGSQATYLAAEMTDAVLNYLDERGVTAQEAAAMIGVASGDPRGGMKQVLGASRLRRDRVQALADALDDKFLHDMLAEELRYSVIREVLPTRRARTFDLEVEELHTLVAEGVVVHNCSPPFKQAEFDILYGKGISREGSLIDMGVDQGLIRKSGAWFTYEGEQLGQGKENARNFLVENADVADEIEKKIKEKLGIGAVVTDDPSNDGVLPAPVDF

[1] = biological target: Dual specificity mitogen-activated protein kinase kinase 1 (Homo sapiens, UniProt Q02750); assay: Navigating the Kinome. Panel member name: MAP2K1; assay type: functional
[2] = biological target: Tyrosine-protein kinase JAK2 (Homo sapiens, UniProt O60674); assay type: functional;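 note: JAK2 tested as one member of a kinase panel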
[3] = biological target: 5'-AMP-activated protein kinase catalytic subunit alpha-1 (Homo sapiens, UniProt Q13131); assay type: functional
[4] = biological target: ALK tyrosine kinase receptor (Homo sapiens, UniProt Q9UM73); assay type: functional;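 note: ALK tested as one member of a kinase panel screen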
[5] = biological target: Death-associated protein kinase 3 (Homo sapiens, UniProt O43293); assay type: functional;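 note: measured as one member of a kinome-wide profiling panel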
[6] = biological target: Mitogen-activated protein kinase 9 (Homo sapiens, UniProt P45984); assay type: functional;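 note: value from a kinome panel profiling assay, MAPK9 panel entry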
LIM domain kinase 1 = LIM domain kinase 1 (Homo sapiens, UniProt P53667); assay: Navigating the Kinome. Panel member name: LIMK1; assay type: functional
[7] = biological target: Hepatocyte growth factor receptor (Homo sapiens, UniProt P08581); assay type: functional;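 note: kinase panel profiling across the kinome, with MET as the panel member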
[8] = biological target: Dual specificity tyrosine-phosphorylation-regulated kinase 1B (Homo sapiens, UniProt Q9Y463); assay: Navigating the Kinome. Panel member name: DYRK1B; assay type: functional
[9] = biological target: Platelet-derived growth factor receptor alpha (Homo sapiens, UniProt P16234); assay: Navigating the Kinome. Panel member name: PDGFRA; assay type: functional
[10] = biological target: Serine/threonine-protein kinase Nek2 (Homo sapiens, UniProt P51955); assay type: functional
[11] = biological target: cAMP-dependent protein kinase catalytic subunit alpha (Homo sapiens, UniProt P17612); assay type: functional
[12] = biological target: Macrophage colony-stimulating factor 1 receptor (Homo sapiens, UniProt P07333); assay type: functional;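 note: value comes from the Navigating the Kinome screening panel, CSF1R member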
[13] = biological target: Dual specificity tyrosine-phosphorylation-regulated kinase 1A (Homo sapiens, UniProt Q13627); assay type: functional;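 note: measured against DYRK1A as one member of a broad kinome profiling panel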
[14] = inhibitors of SNCA 5'UTR-driven reporter translation, confirmation, H4 neuroglioma cells, luminescence (AID 1988); assay type: functional, cell-based
Streptokinase A = biological target: T2, Streptokinase A (Streptococcus pyogenes serotype M1, UniProt P10520); assay: S. pyogenes streptokinase expression inhibitors, potency, dose response, plasminogen activation absorbance, OD405 (AID 1914); assay type: functional, Streptococcus pyogenes M1 GAS;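 note: secreted streptokinase activity via plasminogen activation per viability signal from cell pellet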
T2 sequence (P10520 whole entry): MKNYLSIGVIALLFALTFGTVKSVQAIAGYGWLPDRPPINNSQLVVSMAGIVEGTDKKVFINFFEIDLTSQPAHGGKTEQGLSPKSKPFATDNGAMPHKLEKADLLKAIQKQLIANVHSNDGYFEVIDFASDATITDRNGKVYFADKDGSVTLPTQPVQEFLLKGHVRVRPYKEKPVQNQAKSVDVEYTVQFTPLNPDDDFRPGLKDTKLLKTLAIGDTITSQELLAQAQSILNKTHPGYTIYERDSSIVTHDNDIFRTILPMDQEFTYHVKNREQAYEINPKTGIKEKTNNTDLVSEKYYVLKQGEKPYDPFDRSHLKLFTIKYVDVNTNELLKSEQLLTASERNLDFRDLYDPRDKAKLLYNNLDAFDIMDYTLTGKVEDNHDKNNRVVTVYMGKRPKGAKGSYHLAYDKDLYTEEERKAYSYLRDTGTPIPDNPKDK

[15] = biological target: Matrix metalloproteinase-14 (Homo sapiens, UniProt P50281); assay: SAR confirmation of uHTS hits for a small molecule inhibitors of MT1-MMP activation in a fluorescence assay.; assay type: functional

Sequence of 5'-AMP-activated protein kinase catalytic subunit alpha-1 (Q13131 whole entry): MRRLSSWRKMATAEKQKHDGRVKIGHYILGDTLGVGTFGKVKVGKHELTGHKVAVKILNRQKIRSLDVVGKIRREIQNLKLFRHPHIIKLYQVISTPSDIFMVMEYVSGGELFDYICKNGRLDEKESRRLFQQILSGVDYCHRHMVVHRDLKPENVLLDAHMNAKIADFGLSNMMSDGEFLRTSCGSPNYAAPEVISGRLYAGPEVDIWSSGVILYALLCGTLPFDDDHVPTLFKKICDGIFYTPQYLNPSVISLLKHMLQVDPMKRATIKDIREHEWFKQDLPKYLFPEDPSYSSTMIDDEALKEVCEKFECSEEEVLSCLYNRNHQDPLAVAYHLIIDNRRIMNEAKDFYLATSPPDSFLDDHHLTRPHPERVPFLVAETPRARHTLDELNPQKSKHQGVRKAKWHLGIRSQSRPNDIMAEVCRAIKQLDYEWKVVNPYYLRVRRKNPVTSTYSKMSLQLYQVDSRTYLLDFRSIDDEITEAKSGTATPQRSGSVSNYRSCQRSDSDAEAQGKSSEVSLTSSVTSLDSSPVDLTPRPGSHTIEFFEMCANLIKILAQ
Sequence of ALK tyrosine kinase receptor (Q9UM73 whole entry): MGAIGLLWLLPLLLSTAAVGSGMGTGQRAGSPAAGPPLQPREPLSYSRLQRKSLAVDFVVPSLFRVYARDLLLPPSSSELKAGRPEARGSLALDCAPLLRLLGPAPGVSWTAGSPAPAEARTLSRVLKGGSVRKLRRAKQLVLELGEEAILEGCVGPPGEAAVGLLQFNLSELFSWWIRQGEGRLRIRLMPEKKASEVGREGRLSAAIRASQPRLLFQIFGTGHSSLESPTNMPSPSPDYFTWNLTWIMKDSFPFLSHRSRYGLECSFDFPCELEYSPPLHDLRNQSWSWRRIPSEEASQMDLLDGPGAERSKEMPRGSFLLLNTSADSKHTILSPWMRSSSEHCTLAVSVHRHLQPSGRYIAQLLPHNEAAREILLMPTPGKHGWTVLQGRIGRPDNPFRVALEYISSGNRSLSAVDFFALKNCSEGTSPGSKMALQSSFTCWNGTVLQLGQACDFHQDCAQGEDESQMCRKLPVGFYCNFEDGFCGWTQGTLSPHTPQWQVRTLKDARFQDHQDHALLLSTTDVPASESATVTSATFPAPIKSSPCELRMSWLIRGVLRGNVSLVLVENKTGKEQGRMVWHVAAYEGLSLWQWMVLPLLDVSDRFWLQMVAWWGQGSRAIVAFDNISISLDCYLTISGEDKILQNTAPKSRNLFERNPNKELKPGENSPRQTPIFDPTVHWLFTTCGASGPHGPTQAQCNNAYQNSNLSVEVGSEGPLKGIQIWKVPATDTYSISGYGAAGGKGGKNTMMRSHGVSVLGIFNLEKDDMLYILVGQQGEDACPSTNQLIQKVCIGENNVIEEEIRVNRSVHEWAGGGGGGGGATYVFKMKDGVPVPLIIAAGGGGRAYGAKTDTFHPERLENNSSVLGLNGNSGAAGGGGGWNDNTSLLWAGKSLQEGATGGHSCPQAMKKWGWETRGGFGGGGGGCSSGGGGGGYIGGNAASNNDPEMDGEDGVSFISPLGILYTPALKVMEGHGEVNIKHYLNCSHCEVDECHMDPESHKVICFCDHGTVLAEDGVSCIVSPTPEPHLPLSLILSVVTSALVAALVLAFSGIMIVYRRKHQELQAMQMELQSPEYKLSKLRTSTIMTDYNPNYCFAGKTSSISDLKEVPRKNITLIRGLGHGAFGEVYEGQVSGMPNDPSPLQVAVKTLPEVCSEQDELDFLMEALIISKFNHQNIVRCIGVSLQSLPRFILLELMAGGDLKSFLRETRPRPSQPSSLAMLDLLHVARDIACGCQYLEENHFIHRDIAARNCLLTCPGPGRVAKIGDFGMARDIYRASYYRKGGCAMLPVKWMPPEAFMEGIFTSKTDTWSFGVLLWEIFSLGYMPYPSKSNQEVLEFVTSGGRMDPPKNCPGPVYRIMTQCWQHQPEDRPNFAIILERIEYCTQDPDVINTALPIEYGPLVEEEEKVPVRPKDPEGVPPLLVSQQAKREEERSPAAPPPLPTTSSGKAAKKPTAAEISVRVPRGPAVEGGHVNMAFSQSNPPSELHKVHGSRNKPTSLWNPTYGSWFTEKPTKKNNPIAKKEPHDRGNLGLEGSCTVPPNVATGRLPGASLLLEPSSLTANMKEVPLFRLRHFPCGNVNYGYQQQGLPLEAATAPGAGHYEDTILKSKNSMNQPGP
Sequence of Serine/threonine-protein kinase Nek2 (P51955 whole entry): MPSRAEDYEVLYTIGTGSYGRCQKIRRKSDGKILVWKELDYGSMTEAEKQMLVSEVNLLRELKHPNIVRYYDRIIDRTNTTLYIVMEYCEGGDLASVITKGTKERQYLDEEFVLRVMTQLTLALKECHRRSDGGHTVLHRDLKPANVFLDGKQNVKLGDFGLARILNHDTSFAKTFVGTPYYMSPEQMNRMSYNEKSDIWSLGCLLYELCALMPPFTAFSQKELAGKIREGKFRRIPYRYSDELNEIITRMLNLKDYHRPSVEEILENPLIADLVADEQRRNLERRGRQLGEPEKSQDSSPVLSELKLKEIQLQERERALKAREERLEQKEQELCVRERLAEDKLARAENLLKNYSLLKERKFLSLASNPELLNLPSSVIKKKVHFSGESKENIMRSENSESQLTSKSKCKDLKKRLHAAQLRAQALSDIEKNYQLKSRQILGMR
Sequence of LIM domain kinase 1 (P53667 whole entry, the tested form may be a part): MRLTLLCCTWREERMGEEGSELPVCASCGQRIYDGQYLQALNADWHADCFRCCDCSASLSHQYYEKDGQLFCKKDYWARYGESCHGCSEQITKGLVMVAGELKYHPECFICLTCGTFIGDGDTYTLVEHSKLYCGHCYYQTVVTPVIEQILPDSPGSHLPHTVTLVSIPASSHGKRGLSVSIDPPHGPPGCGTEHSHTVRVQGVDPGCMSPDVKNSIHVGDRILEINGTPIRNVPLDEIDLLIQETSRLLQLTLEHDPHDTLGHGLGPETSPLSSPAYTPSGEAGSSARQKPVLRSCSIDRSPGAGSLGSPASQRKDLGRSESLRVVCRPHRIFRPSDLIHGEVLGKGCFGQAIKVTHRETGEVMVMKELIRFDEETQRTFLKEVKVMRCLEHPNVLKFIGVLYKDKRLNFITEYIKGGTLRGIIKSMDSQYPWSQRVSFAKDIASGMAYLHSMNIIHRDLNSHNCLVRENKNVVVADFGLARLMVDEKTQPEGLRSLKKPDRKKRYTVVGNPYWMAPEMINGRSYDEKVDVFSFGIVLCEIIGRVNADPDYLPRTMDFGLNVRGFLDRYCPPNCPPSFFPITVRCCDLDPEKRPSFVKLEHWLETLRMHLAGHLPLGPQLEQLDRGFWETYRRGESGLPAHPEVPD
Sequence of Tyrosine-protein kinase JAK2 (O60674 whole entry): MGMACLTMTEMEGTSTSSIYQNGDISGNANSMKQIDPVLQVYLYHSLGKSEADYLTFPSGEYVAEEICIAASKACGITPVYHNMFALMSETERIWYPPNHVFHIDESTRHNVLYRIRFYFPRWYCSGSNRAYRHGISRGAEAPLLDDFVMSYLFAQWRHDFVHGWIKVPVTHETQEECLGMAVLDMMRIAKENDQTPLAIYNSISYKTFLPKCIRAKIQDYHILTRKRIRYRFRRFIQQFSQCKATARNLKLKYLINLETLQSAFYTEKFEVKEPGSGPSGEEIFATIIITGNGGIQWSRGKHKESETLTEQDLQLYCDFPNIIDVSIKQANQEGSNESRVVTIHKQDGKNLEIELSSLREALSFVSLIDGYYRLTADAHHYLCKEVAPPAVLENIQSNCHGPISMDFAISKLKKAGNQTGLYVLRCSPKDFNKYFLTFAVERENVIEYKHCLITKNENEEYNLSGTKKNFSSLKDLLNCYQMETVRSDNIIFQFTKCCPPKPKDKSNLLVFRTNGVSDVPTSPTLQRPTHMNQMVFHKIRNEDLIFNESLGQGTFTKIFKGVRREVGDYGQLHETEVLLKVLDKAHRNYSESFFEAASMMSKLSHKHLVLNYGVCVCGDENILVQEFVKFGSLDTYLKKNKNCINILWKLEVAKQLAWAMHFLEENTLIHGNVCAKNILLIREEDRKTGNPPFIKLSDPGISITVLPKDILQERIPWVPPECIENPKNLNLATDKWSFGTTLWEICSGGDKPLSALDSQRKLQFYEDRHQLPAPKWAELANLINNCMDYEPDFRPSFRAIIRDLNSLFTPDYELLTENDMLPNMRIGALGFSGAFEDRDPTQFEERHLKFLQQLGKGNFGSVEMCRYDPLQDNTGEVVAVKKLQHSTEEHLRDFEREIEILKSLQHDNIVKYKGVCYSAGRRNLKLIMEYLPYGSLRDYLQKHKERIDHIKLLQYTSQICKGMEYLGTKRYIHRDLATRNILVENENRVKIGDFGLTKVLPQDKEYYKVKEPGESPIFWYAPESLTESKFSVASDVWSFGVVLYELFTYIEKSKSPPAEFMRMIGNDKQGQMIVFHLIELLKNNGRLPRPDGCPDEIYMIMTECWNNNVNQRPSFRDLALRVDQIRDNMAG
Sequence of Mitogen-activated protein kinase 9 (P45984 whole entry, the tested form may be a part): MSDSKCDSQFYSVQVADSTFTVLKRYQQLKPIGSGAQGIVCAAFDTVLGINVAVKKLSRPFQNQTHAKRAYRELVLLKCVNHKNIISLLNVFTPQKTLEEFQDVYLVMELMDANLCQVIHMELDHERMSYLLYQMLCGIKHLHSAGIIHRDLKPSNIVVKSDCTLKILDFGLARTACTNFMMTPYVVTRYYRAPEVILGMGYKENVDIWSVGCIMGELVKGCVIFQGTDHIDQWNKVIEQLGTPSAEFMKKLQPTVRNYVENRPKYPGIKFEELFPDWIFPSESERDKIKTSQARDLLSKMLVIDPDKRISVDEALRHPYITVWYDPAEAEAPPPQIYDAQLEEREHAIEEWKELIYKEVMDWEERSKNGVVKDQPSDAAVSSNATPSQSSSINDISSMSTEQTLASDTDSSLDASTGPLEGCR

Cc1ccc(NC(=O)COc2cccc(/C=C3\SC(=S)N(CCC(=O)O)C3=O)c2)cc1Cl
EC50 (Protein RecA): 19.1 µM (active)

COc1cccc(C(C)NC(=O)c2ccc(-c3ccncc3)s2)c1 (stereo not drawn)
Ki [1]: > 3.16 µM (inactive) | Ki [2]: > 2.51 µM (inactive) | Ki [3]: > 3.16 µM (inactive) | Ki [4]: > 6.31 µM (inactive) | Ki [5]: > 5.01 µM (inactive) | Ki [6]: > 3.98 µM (inactive) | Ki (LIM domain kinase 1): > 3.16 µM (inactive) | Ki [7]: > 2.51 µM (inactive) | Ki [8]: > 2.51 µM (inactive) | Ki [9]: > 2.51 µM (inactive) | Ki [10]: > 3.16 µM (inactive) | Ki [11]: 0.0794 µM (active) | Ki [12]: > 2.51 µM (inactive) | Ki [13]: > 2 µM (inactive)

O=Nc1c(-c2c(O)[nH]c3cc(Br)ccc23)[nH]c2ccccc12
EC50 [14]: 9.31 µM (active) | EC50 (Streptokinase A): 44.9 µM (active) | IC50 [15]: 8.89 µM (active)
